In patent US8809541B2, “Heterocyclic compound, and composition for treating inflammatory diseases using same” (Neopharm Co., Ltd., priority 2010, dated 2014):

Experiments:
nude mice (SKH-1) [1] = assay: Recovery of acute skin barrier disruption (tape stripping); type: in vivo
Protocol: The recovery rate after acute skin barrier disruption was evaluated on a selected compound by using nude mice. Skins of both abdominal regions of each of 6-8 week aged nude mice (SKH-1) were subjected to repetitive tape stripping, so that transepidermal water loss reached a level of about 35˜40 g/m^2/hr, and then, respective samples were applied thereto. The transepidermal water loss was measured by using the TEWameter (Courage & Khazaka, Germany) immediately before and after skin barrier disruption and 3 hours and 6 hours after application, and the recovery rate of transepidermal water loss was calculated as follows.
(wherein, TEWLa is TEWL value immediately after barrier disruption, TEWLb is TEWL value at the baseline, and TEWLc is TEWL value at the indicated time.)

nude mice (SKH-1) [2] = assay: Oxazolone chronic dermatitis animal model; type: in vivo; conditions: compared with the control group
Protocol: Efficacy of a selected material was evaluated by using a chronic dermatitis animal model. An animal model of which chronic dermatitis was induced by continuously applying oxaozolone, which is a kind of hapten, to the nude mice was used. […] In order to construct a chronic dermatitis animal model, 5% of oxazolone was applied to 6-week nude mice (SKH-1) and thus sensitized, and 0.1% of oxazolone was applied once every two days from a week after, resulting in inducing dermatitis symptom. The sample was applied to an animal after induction at an interval of once a day for three days, and various dermal functions and skin thickness change were observed. Finally, skin biopsy was conducted and histological observation was conducted.
As a positive control group used in the experiment, 0.05% of desonide, which is relatively low potency steroid, was used, and the transepidermal water loss, the moisture content in the stratum corneum, and skin thickness change were observed.

PAR-2 [3] = target: T1, PAR-2 (Homo sapiens, UniProt P55085); assay: Calcium immobilization assay (Calcium-4 assay kit); type: cell-based; parameters: expressed in transfected cells; conditions: HCT-15 PAR-2-overexpressed cell line, activating peptide (AP) as activator
T1 sequence (P55085 26-397): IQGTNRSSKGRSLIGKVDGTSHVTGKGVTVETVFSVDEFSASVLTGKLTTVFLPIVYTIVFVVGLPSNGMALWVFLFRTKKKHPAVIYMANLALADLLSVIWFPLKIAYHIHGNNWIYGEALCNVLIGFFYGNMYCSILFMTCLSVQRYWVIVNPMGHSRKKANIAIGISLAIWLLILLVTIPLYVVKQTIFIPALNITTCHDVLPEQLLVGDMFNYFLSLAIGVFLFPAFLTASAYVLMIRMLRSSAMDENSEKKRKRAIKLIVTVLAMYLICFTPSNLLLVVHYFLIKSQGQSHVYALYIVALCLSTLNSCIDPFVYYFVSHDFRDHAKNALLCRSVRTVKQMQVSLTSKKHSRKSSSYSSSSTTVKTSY
Protocol: In order to evaluate PAR-2 inhibitory activity of the synthesized material, first, an assay system capable of measuring the change in concentration of calcium ions in a cell in real-time was constructed, and then an evaluation was conducted by using the assay system. PAR-2 is a kind of G-protein coupled receptor (GPCR). When the PAR-2 is activated in the cell, phospholipase C-b (PLC-b) was activated to cleave phosphatidylinositol 4,5-bisphosphate (PIP2) into inositol triphosphate (IP3) and diacyl glycerol (DAG). The IP3 generated herein promotes secretion of calcium ions in an endoplasmic reticulum (ER), calcium ion reservoir in the cell, resulting in increasing calcium ions in the cell. An in vitro screening assay system capable of searching materials that may suppress the increase in concentration of calcium ions in the cell due to activation of PAR-2 was constructed based on the existing search results. As a PAR-2 activator used in the experiment, activating peptide (AP) was used. As a reagent for detecting the concentration of calcium ions in the cell, the Calcium-4 assay kit by Molecular Probe Company was used. HCT-15, a PAR-2-overexpressed cell line, was used as a cell line used in the experiment.
The PAR-2 inhibitory activity of the synthesized material was evaluated by using such the protocol, and the assay profile of Compound 98 synthesized in Example 1 was shown in FIG. 1.

PAR-2 [4] = target: T1, PAR-2; assay: PathHunter β-arrestin GPCR assay; type: cell-based; parameters: expressed in transfected cells; host or cells: KNRK (Kirsten Murine Sarcoma Virus transformed rat kidney epithelial cells); conditions: β-arrestin accumulation
Protocol: An in vitro assay protocol capable of detecting activation of PAR-2 was additively introduced besides the calcium immobilization assay, and activity of the selected material was measured. First, the PAR-2 inhibitory activity of Compound 98 was measured by using the PathHunter™ β-arrestin GPCR assay kit by DiscoveRx Company, capable of detecting accumulation of β-arrestin, which is an intercellular reaction material primarily generated by activation of PAR-2. As the measurement results, an IC50 value slightly different from the Calcium immobilization assay was observed (Table 1).

PAR-2 [5] = target: T1, PAR-2; assay: Confocal microscopy of PAR-2 activation in KNRK-PAR-2 cell line; type: cell-based; parameters: expressed in transfected cells; host or cells: KNRK (Kirsten Murine Sarcoma Virus transformed rat kidney epithelial cells); conditions: [Compound 98]=200 μM, [trypsin]=1 μM, [SLIGKV]=100 μM, KNRK-PAR-2 cells
Protocol: In order to visually confirm activation of PAR-2, a cell line having the following structure was prepared referring to the existing reference documents, and activation of PAR-2 was observed by using a confocal microscopy. As a cell line, Kirsten Murine Sarcoma Virus transformed rat kidney epithelial cell (KNRK cell) was used, which is a cell line where, normally, PAR-2 is not expressed. In the KNRK cell, flag epitope was tagged to an N-terminal and Myc epitope was tagged to a C-terminal, so that a stable transfected cell was constructed. Flag and Myc of the thus prepared KNRK-PAR-2 cell line were subjected to double staining, and activation or non-activation of PAR-2 was observed by using the confocal microscopy ([trypsin]=1 μM, [SLIGKV(AP)]=100 μM). When the PAR-2 was not activated, Flag and Myc were double-stained and thus appears yellow in the merged image. However, when the PAR-2 was activated, Flag was separated away and thus a red image was shown.

IC50 (PAR-2 [3]): 243 µM
IC50 (PAR-2 [4]): 95.3 µM
Activation of PAR-2 (Flag/Myc double staining image) (PAR-2 [5]): activation of PAR-2 was suppressed
Substance: (2-methyl-1-m-tolyl-1H-benzo[d]imidazol-5-yl)(piperidin-1-yl)methanone [Compound 98]
Recovery rate of transepidermal water loss after acute skin barrier disruption (nude mice (SKH-1) [1]; 1.0% applied to skin, 3 and 6 hours after application): rapid recovery
Activity in promoting the recovery after skin barrier disruption (nude mice (SKH-1) [1]; overall conclusion, FIG. 3): best activity in promoting the recovery after skin barrier disruption
Recovery of transepidermal water loss (nude mice (SKH-1) [2]; FIG. 4): promoted recovery
Recovery of moisture content in the stratum corneum (nude mice (SKH-1) [2]; FIG. 5): promoted recovery
PCNA positive keratinocyte (PCNA staining) (nude mice (SKH-1) [2]; FIG. 7): statically significant decrease
